Experiments:
A. retroflexus [1] = experiment: Chlorophyll fluorescence measurements, A. retroflexus leaf discs; type: in vivo, Amaranthus retroflexus; settings: 2 mM
Method: from a fixed distance at 90° view angle using the camera Canon EOS 70D equipped with a Canon EF 14 mm/2.8 L II USM lens. Leaf area of single leaves was measured using the ImageJ software31, by drawing the leaf contours using a drawing tablet (Cintiq 22HD, Wacom Europe GmbH, Krefeld, Germany). Conversion of pixel to cm was achieved by using a target of known size inside the image. Six days after the treatment, half of the plants were harvested. Leaf area was assessed using a leaf area meter (LI3100C Area Meter, LI-Cor, Lincoln, Nebraska, USA) and samples were oven-dried at 65°C for seven days to obtain dry weight . Thirteen days after the treatment, this procedure was repeated with the second half of plants.
Chlorophyll fluorescence measurements
For assessment of photosynthetic parameters, A. retroflexus plants were grown under the abovementioned conditions until the two-leaves growth stage. 6 mm leaf discs were cut out of the second leaf and immediately placed into 96-well-plates filled with 300 µL 0.125 % Hoagland’s solution with 1 mM MES-KOH (MES-monohydrate, Merck, Darmstadt, Germany) buffered to a pH of 6.5. The treatment solution contained 1.6 % (v/v) DMSO, 0.1 % (v/v) Tween® 20 and 2',3',4',3,4-Pentahydroxychalcone at a concentration of 2 mM. The control treatment contained 1.6 % (v/v) DMSO, 0.1 % (v/v) Tween® 20. Each leaf disc was treated with 1.5 µL solution placed on top of the leaf discs. Plates were sealed with Parafilm and placed into a climate cabinet with 12h/12h day/night-length and a temperature of 22°C at a light intensity of 130 µmol m-2 s-1. 96 hours after treatment, chlorophyll fluorescence measurements were performed on leaf discs using an Imaging PAM M-Series fluorescence camera (Heinz Walz GmbH, Effeltrich, Germany). Leaf discs were dark adapted for 30 minutes, minimum and maximum chlorophyll fluorescence were obtained and leaf discs were illuminated for 30 minutes

A. retroflexus [2] = experiment: Leaf gas exchange measurements, A. retroflexus; type: in vivo, Amaranthus retroflexus
Method: (§1) CO2-response curves were obtained on A. retroflexus and B. napus using a LI-6400XT portable photosynthesis system equipped with a fluorescence head and a leaf chamber size of 2 cm^2 (LI-COR, Lincoln, NE, USA) at a photon flux density of 1500 μmol m^−2 s^−1 and at 25 °C leaf temperature. Plants were grown at the research greenhouse of the IBG-2 Institute of Plant Sciences at Forschungszentrum Jülich, Germany (50°55′20″N 06°21′30″E), at a day/night length of 16 h/8 h, at an average day/night temperature of 23 °C/17 °C, relative humidity of 55%, and light intensity of 170 PAR. Plants were treated as described above at the three-leaf stage. Measurements were performed on the third leaf before treatment and one day after treatment. Each treatment was repeated four times. Information on statistical analysis is given in the Supplementary Information.

B. napus = experiment: Leaf gas exchange measurements, B. napus; type: in vivo, Brassica napus
Method: as §1

[3] = estimate valid for both measurement days (before and one day after treatment)

In the case of O=C(/C=C/c1ccc(O)c(O)c1)c1ccc(O)c(O)c1O [Compound 12, 2′,3′,4′,3,4-Pentahydroxy-chalcone], the “effective quantum yield of photosystem II” value (A. retroflexus [1]) is reported as “increased”, the “maximum electron transfer rate” value (A. retroflexus [1]) is reported as “increased” and the non-photochemical quenching (A. retroflexus [1]) is reported as “reduced”. The “Maximal PEP carboxylation rate (Vpmax)” value (A. retroflexus [2]; Before treatment) was 36.5 μmol m^−2 s^−1, the “Maximal PEP carboxylation rate (Vpmax)” value (A. retroflexus [2]; Before treatment, listed as Okanin) was 36.5 (3.96) μmol m^−2 s^−1 and the “Maximal PEP carboxylation rate (Vpmax)” value (A. retroflexus [2]; One day after treatment) was 17.2 μmol m^−2 s^−1. The “Maximal PEP carboxylation rate (Vpmax)” value (A. retroflexus [2]; One day after treatment, listed as Okanin) was 17.2 (2.43) μmol m^−2 s^−1, the “decrease of Vpmax” value (A. retroflexus [2]; one day after treatment) was “more than 50%” and the photosynthetic parameters (B. napus; after treatment) was “no changes”. The “maximal electron transport rate (Jmax)” value (B. napus; [3]) was 144.2 (3.77), the “maximal rubisco carboxylation rate (Vcmax)” value (B. napus; [3]) was 81.5 (3.33) and the “mitochondrial respiration (Rd)” value (B. napus; [3]) was 0.9 (0.66).
